Test results taken from patent publication US9217015B2, “Cyclosporin derivatives for the treatment and prevention of a viral infection” (S&T Global Inc., priority 2010, dated 2015).
Read-outs that look alike come from different tables or passages of the source. Numbered stars: 1 amine (or outer) side, 2 acyl side, 3 side chain; on linkers, the order of the positions; unused ones are H or OH. Square brackets hold non-standard residues; d marks the D form. Peptide text beside a SMILES is read from it. ξ: configuration not given here. MeBmt = C/C=C/C[C@@H](C)[C@@H](O)[C@H](NC)C(=O)O; X1 = CN([C@H](SCCCN1CCOCC1)C(=O)[*:2])[*:1]; X2 = CCN(CC)CCCS[C@H](C(=O)[*:2])N(C)[*:1]; X3 = CCN(CC)CCS[C@H](C(=O)[*:2])N(C)[*:1]; NMeIle(3ξ) = CCC(C)[C@H](NC)C(=O)O; NMeL = CN[C@@H](CC(C)C)C(=O)O; NMeV = CN[C@H](C(=O)O)C(C)C; Abu = CC[C@H](N)C(=O)O

How the values were obtained:
HCV replicon = assay: HCV subgenomic replicon assay (Huh7 ET luc-ubi-neo/ET cells, luciferase end point); type: cell-based; settings: read-out: Antiviral activity IC50
Experimental: The anti-HCV activity of cyclosporine derivatives were evaluated in the HCV subgenomic replicon assay. The assay use the cell line ET (luc-ubi-neo/ET), which is a Huh7 human hepatoma cell line harboring an HCV replicon with a stable luciferase (Luc) reporter. HCV RNA replication was assessed by quantifying HCV replicon-derived luciferase activity. The antiviral activity of cyclosporine analogs were evaluated after drug treatment, the EC 50 and EC 90 were determined in subsequent assessments by using the luciferase end point (Krieger, N. et al., 2001, J. Virol. 75:4614-4624; Pietschmann, T. et al., 2002, J. Virol. 76:4008-4021; each of which is incorporated herein by reference).

[1] = type: physicochemical
Experimental: The stability of Cyclosporin derivatives were evaluated in methanol at 65° C. and 50° C., and HPLC was used to monitor possible degradation of these compounds (C8, 250 mm, NH4OAc 10 mmol in MeCN and H2O, operation temperature: 65° C.).

[2] = Huh7 ET (luc-ubi-neo/ET) cells, HCV replicon-derived luciferase activity

Compound | Epimerization in MeOH at 50° C. ([1]; 29 hrs) [%] | Epimerization in MeOH at 50° C. ([1]; 77 hrs) [%] | Epimerization in MeOH at 50° C. ([1]; 125 hrs) [%] | also measured
C/C=C/C[C@@H](C)[C@@H](O)[C@H]1C(=O)N[C@@H](CC)C(=O)N(C)CC(=O)N(C)[C@@H]([C@@H](C)CC)C(=O)N[C@@H](C(C)C)C(=O)N(C)[C@@H](CC(C)C)C(=O)N[C@@H](C)C(=O)N[C@H](C)C(=O)N(C)[C@@H](CC(C)C)C(=O)N(C)[C@@H](CC(C)C)C(=O)N(C)[C@@H](C(C)C)C(=O)N1C [SDZ-NIM-811, N-MeIle-4-Cyclosporin, reference compound] | – | – | – | IC50 (HCV replicon; Hepatitis C virus, Huh7 ET): 150 nM
C/C=C/C[C@@H](C)[C@@H](O)[C@H]1C(=O)N[C@@H](CC)C(=O)N(C)[C@H](SCCCN(CC)CC)C(=O)N(C)[C@@H](C(C)CC)C(=O)N[C@@H](C(C)C)C(=O)N(C)[C@@H](CC(C)C)C(=O)N[C@@H](C)C(=O)N[C@H](C)C(=O)N(C)[C@@H](CC(C)C)C(=O)N(C)[C@@H](CC(C)C)C(=O)N(C)[C@@H](C(C)C)C(=O)N1C (some centres unmarked) (cyclo(A[dA][NMeL][NMeL][NMeV][MeBmt][Abu][X2][NMeIle(3ξ)]V[NMeL])) | 0 | 0 | 0 | –
C/C=C/C[C@@H](C)[C@@H](O)[C@H]1C(=O)N[C@@H](CC)C(=O)N(C)[C@H](SCCCN2CCOCC2)C(=O)N(C)[C@@H](C(C)CC)C(=O)N[C@@H](C(C)C)C(=O)N(C)[C@@H](CC(C)C)C(=O)N[C@@H](C)C(=O)N[C@H](C)C(=O)N(C)[C@@H](CC(C)C)C(=O)N(C)[C@@H](CC(C)C)C(=O)N(C)[C@@H](C(C)C)C(=O)N1C (some centres unmarked) (cyclo(A[dA][NMeL][NMeL][NMeV][MeBmt][Abu][X1][NMeIle(3ξ)]V[NMeL])) | 0 | 0 | 0 | –
C/C=C/C[C@@H](C)[C@@H](O)[C@H]1C(=O)N[C@@H](CC)C(=O)N(C)[C@H](SCCN(CC)CC)C(=O)N(C)[C@@H](C(C)CC)C(=O)N[C@@H](C(C)C)C(=O)N(C)[C@@H](CC(C)C)C(=O)N[C@@H](C)C(=O)N[C@H](C)C(=O)N(C)[C@@H](CC(C)C)C(=O)N(C)[C@@H](CC(C)C)C(=O)N(C)[C@@H](C(C)C)C(=O)N1C (some centres unmarked) [reference compound] (cyclo(A[dA][NMeL][NMeL][NMeV][MeBmt][Abu][X3][NMeIle(3ξ)]V[NMeL])) | 4.4 | 10.4 | 16.2 | –
C/C=C/C[C@@H](C)[C@@H](O)[C@H]1C(=O)N[C@@H](CC)C(=O)N(C)[C@H](SCCN(CC)CC)C(=O)N(C)[C@@H](C(C)C)C(=O)N[C@@H](C(C)C)C(=O)N(C)[C@@H](CC(C)C)C(=O)N[C@@H](C)C(=O)N[C@H](C)C(=O)N(C)[C@@H](CC(C)C)C(=O)N(C)[C@@H](CC(C)C)C(=O)N(C)[C@@H](C(C)C)C(=O)N1C [Example 1, [(R)-2-(N,N-Diethylamino)ethylthio-Sar]-3-[N-methylvaline]-4-cyclosporin] (cyclo(A[dA][NMeL][NMeL][NMeV][MeBmt][Abu][X3][NMeV]V[NMeL])) | – | – | – | IC50 (HCV replicon; Hepatitis C virus, Huh7 ET): 50 nM
C/C=C/C[C@@H](C)[C@@H](O)[C@H]1C(=O)N[C@@H](CC)C(=O)N(C)[C@H](SCCN(C)C)C(=O)N(C)[C@@H](CC(C)(C)O)C(=O)N[C@@H](C(C)C)C(=O)N(C)[C@@H](CC(C)C)C(=O)N[C@@H](C)C(=O)N[C@H](C)C(=O)N(C)[C@@H](CC(C)C)C(=O)N(C)[C@@H](CC(C)C)C(=O)N(C)[C@@H](C(C)C)C(=O)N1C [SCY-635, reference compound] | – | – | – | Chemical stability (conversion to epimer), in words [1]: not chemically stable
C/C=C/C[C@@H](C)[C@@H](O)[C@H]1C(=O)N[C@@H](CC)C(=O)N(C)[C@H](SCCCN2CCOCC2)C(=O)N(C)[C@@H](C(C)C)C(=O)N[C@@H](C(C)C)C(=O)N(C)[C@@H](CC(C)C)C(=O)N[C@@H](C)C(=O)N[C@H](C)C(=O)N(C)[C@@H](CC(C)C)C(=O)N(C)[C@@H](CC(C)C)C(=O)N(C)[C@@H](C(C)C)C(=O)N1C (cyclo(A[dA][NMeL][NMeL][NMeV][MeBmt][Abu][X1][NMeV]V[NMeL])) | 0 | 0 | 0 | –
C/C=C/C[C@@H](C)[C@@H](O)[C@H]1C(=O)N[C@@H](CC)C(=O)N(C)[C@H](SCCN(C)C)C(=O)N(C)[C@@H](CC(C)C)C(=O)N[C@@H](C(C)C)C(=O)N(C)[C@@H](CC(C)C)C(=O)N[C@@H](C)C(=O)N[C@H](C)C(=O)N(C)[C@@H](CC(C)C)C(=O)N(C)[C@@H](CC(C)C)C(=O)N(C)[C@@H](C(C)C)C(=O)N1C [drawing 58, reference compound] | 25.5 | 31.8 | 34.9 | –
C/C=C/C[C@@H](C)[C@@H](O)[C@H]1C(=O)N[C@@H](CC)C(=O)N(C)CC(=O)N(C)[C@@H](C(C)C)C(=O)N[C@@H](C(C)C)C(=O)N(C)[C@@H](CC(C)C)C(=O)N[C@@H](C)C(=O)N[C@H](C)C(=O)N(C)[C@@H](CC(C)C)C(=O)N(C)[C@@H](CC(C)C)C(=O)N(C)[C@@H](C(C)C)C(=O)N1C [SDZ-220-384, N-MeVal-4-cyclosporin, reference compound] | – | – | – | IC50 (HCV replicon; [2]): 170 nM
C/C=C/C[C@@H](C)[C@@H](O)[C@H]1C(=O)N[C@@H](CC)C(=O)N(C)[C@H](SCCCN(CC)CC)C(=O)N(C)[C@@H](C(C)C)C(=O)N[C@@H](C(C)C)C(=O)N(C)[C@@H](CC(C)C)C(=O)N[C@@H](C)C(=O)N[C@H](C)C(=O)N(C)[C@@H](CC(C)C)C(=O)N(C)[C@@H](CC(C)C)C(=O)N(C)[C@@H](C(C)C)C(=O)N1C (cyclo(A[dA][NMeL][NMeL][NMeV][MeBmt][Abu][X2][NMeV]V[NMeL])) | 0 | 0 | 0 | –
C/C=C/C[C@@H](C)[C@@H](O)[C@H]1C(=O)N[C@@H](CC)C(=O)N(C)[C@H](SCCCN2CCOCC2)C(=O)N(C)[C@@H](C(C)CC)C(=O)N[C@@H](C(C)C)C(=O)N(C)[C@@H](CC(C)C)C(=O)N[C@@H](C)C(=O)N[C@H](C)C(=O)N(C)[C@@H](CC(C)C)C(=O)N(C)[C@@H](CC(C)C)C(=O)N(C)[C@@H](C(C)C)C(=O)N1C (stereo partly drawn) [Example 6, [(R)-3-(N-Morpholino)propylthio-Sar]-3-[N-methylisoleucine]-4-cyclosporin] (cyclo(A[dA][NMeL][NMeL][NMeV][MeBmt][Abu][X1][NMeIle(3ξ)]V[NMeL])) | – | – | – | IC50 (HCV replicon; Hepatitis C virus, Huh7 ET): 50 nM
[(S)-2-(N,N-Diethylamino)ethylthio-Sar]-3-[N-methylvaline]-4-cyclosporin | – | – | – | IC50 (HCV replicon; [2]): 3660 nM
C/C=C/C[C@@H](C)[C@@H](O)[C@H]1C(=O)N[C@@H](CC)C(=O)N(C)[C@H](SCCN(C)C)C(=O)N(C)[C@@H](CC(C)C)C(=O)N[C@@H](C(C)C)C(=O)N(C)[C@@H](CC(C)C)C(=O)N[C@@H](C)C(=O)N[C@H](C)C(=O)N(C)[C@@H](CC(C)C)C(=O)N(C)[C@@H](CC(C)C)C(=O)N(C)[C@@H](C(C)C)C(=O)N1C [[(R)-2-(N,N-Dimethylamino)ethylthio-Sar]-3-cyclosporin, reference compound] | – | – | – | Chemical stability (conversion to epimer), in words [1]: not stable
C/C=C/C[C@@H](C)[C@@H](O)[C@H]1C(=O)N[C@@H](CC)C(=O)N(C)[C@H](SCCN(CC)CC)C(=O)N(C)[C@@H](C(C)CC)C(=O)N[C@@H](C(C)C)C(=O)N(C)[C@@H](CC(C)C)C(=O)N[C@@H](C)C(=O)N[C@H](C)C(=O)N(C)[C@@H](CC(C)C)C(=O)N(C)[C@@H](CC(C)C)C(=O)N(C)[C@@H](C(C)C)C(=O)N1C (stereo partly drawn) [Example 4, [(R)-2-(N,N-Diethylamino)ethylthio-Sar]-3-[N-methylisoleucine]-4-cyclosporin] (cyclo(A[dA][NMeL][NMeL][NMeV][MeBmt][Abu][X3][NMeIle(3ξ)]V[NMeL])) | – | – | – | IC50 (HCV replicon; Hepatitis C virus, Huh7 ET): 40 nM
C/C=C/C[C@@H](C)[C@@H](O)[C@H]1C(=O)N[C@@H](CC)C(=O)N(C)[C@H](SCCN(C)C)C(=O)N(C)[C@@H](CC(C)C)C(=O)N[C@@H](C(C)C)C(=O)N(C)[C@@H](CC(C)C)C(=O)N[C@@H](C)C(=O)N[C@H](C)C(=O)N(C)[C@@H](CC(C)C)C(=O)N(C)[C@@H](CC(C)C)C(=O)N(C)[C@@H](C(C)C)C(=O)N1C [drawing 57] | – | – | – | Epimerization in MeOH at 65° C. ([1]; 2 hours): 12%; Epimerization in MeOH at 65° C. ([1]; 4 hours): 19%; Epimerization in MeOH at 65° C. ([1]; 6 hours): 23%
